Assay [1] has as its system 5 × FAD AD mouse model. Briefly: Cerebral amyloid pathology (ELISA, 4G8 immunohistochemistry, Congo red). It counts as in vivo. As to conditions: 1 mg kg^−1 daily i.p., 30 days. An excerpt: The amyloidogenic characteristics of 5 × FAD mice have been described previously. In brief, 5 × FAD mice express the Swedish/London/Florida mutations of the human amyloid precursor protein (hAPP) and the M146L/L286V mutations of the human presenilin-1 (PSEN1). They develop the early and robust pathology of AD with the cognitive and behavioural impairments. The 5 × FAD mice have been widely used to test the possible efficacy of a compound targeted for AD[25][29]. We maintained the mice on a C57BL/6 × SJL hybrid background. All animal experiments were performed in accordance with the guidelines of the Asan Institute for Life Science for Laboratory Animal Care and Use (Seoul, Korea), where the animals had free access to water and food, and were housed on 12 h light/12 h dark cycle.
Chemicals used were freshly prepared shortly before administration to the animals. […]
We measured the levels of various types of Aβ in the brain as described previously. The protein fractions were serially prepared from the left hemispheres in PBS (pH 7.4), in 2% SDS and in 70% FA, and then subjected to the human Aβ40 and Aβ42 ELISA quantification according to the manufacturer's methods (Invitrogen, Carlsbad, CA, USA). The aggregated (Invitorgen) and oligomeric Aβ (82E1-specific; IBL International, Hamburg, Germany) ELISA quantifications were also performed using PBS fractions. The cerebral levels of Aβ40 and Aβ42 were represented as moles per gram of wet brain tissue, whereas the aggregated or oligomeric Aβ amounts were expressed as grams per gram of wet brain tissue.
12-μm sagittal sections of the brain were prepared from the right hemispheres on a cryostat (HM550; Microm, Walldorf, Germany), and mounted onto 1% poly-L-lysine-coated glass slides. […] The loads of amyloid deposits in the brain were expressed as the per cent area of 4G8-immunoreactive deposits or the number of congophilic plaques per mm^2 of a cortical region of interest.
(An ELISA detects its analyte on a solid surface through an enzyme-linked reagent.)

The target of assay [2] is metal-free Aβ40/Aβ42 (Homo sapiens, UniProt P05067). Briefly: Aβ aggregation inhibition/disaggregation experiments (gel/western blot, TEM), metal-free. In kind it is biochemical. As to conditions: Aβ 25 μM, compound 50 μM, 37 °C, 24 h; gel/western blot and TEM. The protocol:
The ability of 1–4 to control the aggregation of both metal-free Aβ and metal-Aβ in inhibition (Fig. 2) and disaggregation experiments (Supplementary Fig. 1) was evaluated using the two major Aβ isoforms (Aβ40/Aβ42)[1][2][3][6][16] found in the AD-affected brain. Molecular weight (MW) distributions and morphologies of the resulting Aβ species were determined by gel electrophoresis followed by western blotting (gel/western blot) and transmission electron microscopy (TEM). Generally, under the experimental conditions employed herein, compound-free Aβ samples with and without metal ions assemble into a distribution of large aggregates that are too big to penetrate into the gel matrix, which yields very little smearing in the gel/western blots, but they can be visualized by TEM. […]
Before experiments, Aβ40 or Aβ42 was dissolved in ammonium hydroxide (NH4OH; 1% v/v, aq). […] The concentration of the solution was determined by measuring the absorbance of the solution at 280 nm (ɛ=1,450 M^–1 cm^–1 for Aβ40; ɛ=1,490 M^–1 cm^–1 for Aβ42). […]
The Aβ samples from in vivo or in vitro experiments were analysed by gel electrophoresis followed by western blotting using an anti-Aβ antibody (6E10)[24][25][27][28][29]. […]
On the technique in general: In western blotting, separated proteins are transferred to a membrane and probed.

Structures are written as SMILES.

metal-free Aβ40/Aβ42, sequence (P05067 672-711 limits assumed): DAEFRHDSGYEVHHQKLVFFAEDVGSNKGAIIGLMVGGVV

As for `Nc1ccc(NCc2ccccn2)cc1` [compound 1, N^1-(pyridin-2-ylmethyl)benzene-1,4-diamine], in assay [1] (4G8-immunoreactive or congophilic plaques), the “Loads of Aβ deposits in the brain” value is listed as “reduced the loads of Aβ deposits”. The “Amounts of Aβ oligomers and aggregates” value in assay [1] (ELISA, PBS fractions) is reported as “decreased”. For the same compound, the “Total Aβ level in the brain versus vehicle” value in assay [1] (PBS-, SDS- and FA-soluble Aβ40/Aβ42, ELISA) is listed as “significantly lower”.
Regarding `CN(C)c1ccc(NCc2ccc[nH]2)cc1` [compound 4, N^1-((1H-pyrrol-2-yl)methyl)-N^4,N^4-dimethylbenzene-1,4-diamine], the “Modulation of metal-free Aβ aggregation” value in assay [2] was “pronounced influence on metal-free Aβ aggregation”.

(Values after article PMC5065625, “Structure-mechanism-based engineering of chemical regulators targeting distinct pathological factors in Alzheimer's disease” (Nature Communications, 2016).)
